The text below walks through data of patent US9290485B2, “N-((6-amino-pyridin-3-yl)methyl)-heteroaryl-carboxamides” (NOVARTIS AG, priority 2010, dated 2016).

For orientation: pIC50 means the negative decadic logarithm of the IC50, by convention in mol/L. Low values mean a large IC50, high ones a small IC50.

The structures appear in SMILES notation. pIC50: −log10 of the molar value.

In this assay the target is human plasma kallikrein (Homo sapiens (Human), UniProt P03952). The settings on record: human plasma kallikrein 25 pM, substrate 0.5 uM, 1 hour pre-incubation at room temperature, read at t=60 min.
Sequence of human plasma kallikrein (P03952 whole entry, looked up): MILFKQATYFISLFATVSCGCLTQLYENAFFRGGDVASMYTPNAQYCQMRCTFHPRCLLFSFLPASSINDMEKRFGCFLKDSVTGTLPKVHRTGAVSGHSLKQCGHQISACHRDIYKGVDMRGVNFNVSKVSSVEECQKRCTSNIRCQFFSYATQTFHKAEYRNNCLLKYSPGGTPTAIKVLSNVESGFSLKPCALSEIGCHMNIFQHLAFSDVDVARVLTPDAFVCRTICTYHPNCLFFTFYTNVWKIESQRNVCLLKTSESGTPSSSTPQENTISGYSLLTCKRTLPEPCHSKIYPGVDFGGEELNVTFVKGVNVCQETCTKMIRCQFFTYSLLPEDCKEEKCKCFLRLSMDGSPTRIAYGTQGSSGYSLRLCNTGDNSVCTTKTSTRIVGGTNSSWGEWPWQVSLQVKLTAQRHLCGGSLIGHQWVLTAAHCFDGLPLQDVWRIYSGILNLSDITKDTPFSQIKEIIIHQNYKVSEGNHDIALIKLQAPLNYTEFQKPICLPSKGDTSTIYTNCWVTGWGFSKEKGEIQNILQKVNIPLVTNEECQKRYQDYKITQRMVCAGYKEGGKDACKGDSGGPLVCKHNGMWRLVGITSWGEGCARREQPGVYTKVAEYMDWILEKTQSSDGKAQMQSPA
Sequence of human plasma kallikrein (P03952 whole entry partner, looked up): as the sequence (P03952 whole entry, looked up) above
Method: All other chemicals were of analytical grade.
A stock solution of 0.17 mg/ml deinonized water was stored at −80° C. Enzymatic reactions were conducted in ‘assay buffer’, comprising 50 mM Hepes/NaOH at pH 7.8, 150 mM NaCl, 1 mM EDTA and 0.05% (w/v) CHAPS.
Both, enzyme and substrate were diluted in assay buffer.
All protein and peptide containing solutions were handled in siliconized tubes (Life Systems Design, Merenschwand, Switzerland). […] Plate measurements were conducted by the means of a Safire2 reader (TECAN, Maennedorf, Switzerland). The Safire2 is a monochomator-based instrument and wavelengths of 485 nm and 535 nm were taken for fluorescence excitation and emission acquisition, respectively. The bandwidths were set to 10 nm in both the excitation and the emission path. The fluorescence in each well was excited by three flashes per measurement.
The test compound was dissolved in 90% (v/v) DMSO/water. For the assays, 250 nL of the 90% (v/v) DMSO/water solution or compound solution were added per well, followed by the addition of 12.5 μl protease solution (protease in assay buffer). […] After 1 hour of pre-incubation at room temperature, the reactions were started by the addition of 12.5 μl substrate solution (in assay buffer, final assay concentration was 0.5 uM). After the addition of the substrate solution, the final DMSO concentration in the assay was 0.9% (v/v). […] The IC50 value was calculated from the plot of percentage of inhibition vs. inhibitor concentration by a logistics fit according to the following equation: y=A2+(A1−A2)/(1+(x/IC50)^p) where y is the %-inhibition at the inhibitor concentration, x. A1 is the lowest inhibition value, i.e. 0%, and A2 the maximum inhibition value, i.e. 100%. The exponent, p, is the Hill coefficient. The curve fitting was conducted with the non-linear regression routine of the analysis software Origin 7.55R6 (OriginLab Corporation).
`Cc1cc(N)nc(C)c1CNC(=O)c1cnn(Cc2ccc(CN3CCCC3)cc2)c1` [Example 118, N-((6-amino-2,4-dimethylpyridin-3-yl)methyl)-1-(4-(pyrrolidin-1-ylmethyl)benzyl)-1H-pyrazole-4-carboxamide]: the pIC50 was 6.74. Turning to `Cc1nc(N)cc(Cl)c1CNC(=O)c1cnn(Cc2ccccc2)c1` [Example 144, N-((6-amino-4-chloro-2-methylpyridin-3-yl)methyl]-1-benzyl-1H-pyrazole-4-carboxamide], the pIC50 was 4.37. `Cc1cc(N)nc(C)c1CNC(=O)c1ncn(Cc2ccc(Oc3ccccc3)cc2)n1` [Example 63, N-((6-amino-2,4-dimethylpyridin-3-yl)methyl)-1-(4-phenoxybenzyl)-1H-1,2,4-triazole-3-carboxamide] showed a pIC50 of 7.96.

Molecule `Cc1cc(N)nc(C)c1CNC(=O)c1cnn(Cc2ccc(Cn3ccccc3=O)cc2)c1` [Example 142, N-((6-amino-2,4-dimethylpyridin-3-yl)methyl)-1-(4-((2-oxopyridin-1(2H)-yl)methyl)benzyl)-1H-pyrazole-4-carboxamide] showed a pIC50 of 10.65.

The molecule `Cc1cc(N)nc(C)c1CNC(=O)c1ccn(S(=O)(=O)c2ccc(-c3ccccc3)cc2)c1` [Example 127, N-((6-amino-2,4-dimethylpyridin-3-yl)methyl)-1-(biphenyl-4-ylsulfonyl)-1H-pyrrole-3-carboxamide] gave a pIC50 of 7.80. In turn, `Cc1cc(N)nc(C)c1CNC(=O)c1cnn(Cc2csc(C(C)(C)C)n2)c1` [Example 28, N-((6-amino-2,4-dimethylpyridin-3-yl)methyl)-1-((2-tert-butylthiazol-4-yl)methyl)-1H-pyrazole-4-carboxamide] showed a pIC50 of 6.46. For `Cc1cc(N)nc(C)c1CNC(=O)c1ncn(Cc2cccc3ccccc23)n1` [Example 62, N-((6-amino-2,4-dimethylpyridin-3-yl)methyl)-1-(naphthalen-1-ylmethyl)-1H-1,2,4-triazole-3-carboxamide], the pIC50 is 6.17. In the case of `Cc1cc(N)nc(C)c1CNC(=O)c1cnn(Cc2ccc(CN3CCCC3=O)cc2)c1` [Example 143, N-((6-amino-2,4-dimethylpyridin-3-yl)methyl)-1-(4-((2-oxopyrrolidin-1-yl)methyl)benzyl)-1H-pyrazole-4-carboxamide], the pIC50 was 8.59. Consider `Cc1cc(N)nc(C)c1CNC(=O)c1ccn(Cc2ccccc2)c1C` [Example 179, N-((6-Amino-2,4-dimethylpyridin-3-yl)methyl)-1-benzyl-2-methyl-1H-pyrrole-3-carboxamide], for which the pIC50 is 4.07. `Cc1cc(N)nc(C)c1CNC(=O)c1cnn(Cc2csc(CC(=O)N(C)C)n2)c1` [Example 29, N-((6-amino-2,4-dimethylpyridin-3-yl)methyl)-1-((2-(2-(dimethylamino)-2-oxoethyl)thiazol-4-yl)methyl]-1H-pyrazole-4-carboxamide] gave a pIC50 of 6.61.

Turning to `COCCN1CCCc2ccc(Cn3cc(C(=O)NCc4c(C)cc(N)nc4C)cn3)cc21` [Example 150, N-((6-Amino-2,4-dimethylpyridin-3-yl)methyl)-1-((1-(2-methoxyethyl)-1,2,3,4-tetrahydroquinolin-7-yl)methyl)-1H-pyrazole-4-carboxamide], the pIC50 is 8.00. `Cc1nc(N)cc(Cl)c1CNC(=O)c1cnn(Cc2ccc(Cn3ccccc3=O)cc2)c1` [Example 167, N-((6-Amino-4-chloro-2-methylpyridin-3-yl)methyl)-1-(4-((2-oxopyridin-1(2H)-yl)methyl)benzyl)-1H-pyrazole-4-carboxamide] gave a pIC50 of 9.70.

Regarding `Cc1nc(N)cc(Cl)c1CNC(=O)c1cnn(Cc2ccc3ccccc3c2)c1` [Example 172, N-((6-amino-4-chloro-2-methylpyridin-3-yl)methyl)-1-(naphthalen-2-ylmethyl)-1H-pyrazole-4-carboxamide], the pIC50 is 7.22. As for `Cc1nc(N)ccc1CNC(=O)c1cnn(Cc2ccccc2)c1` [Example 85, N-((6-amino-2-methylpyridin-3-yl)methyl)-1-benzyl-1H-pyrazole-4-carboxamide], the pIC50 is 5.39.
